{
  "source": "patent US8604061B2",
  "about": "“2-aminooxazolines as TAAR1 ligands” (Hoffmann-La Roche Inc., priority 2007, dated 2013)",
  "data": [
    {"molecular_target": "TAAR1 (Mus musculus, UniProt Q923Y8)", "test": "TAAR1 radioligand binding, membranes of stably transfected HEK293 cells (mouse)", "conditions": "not given", "summary_of_the_method": "(§1)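 Competition binding on membranes from HEK293 cells stably expressing the TAAR1 species ortholog, in HEPES-NaOH pH 7.0 with 10 mM MgCl2 and 2 mM CaCl2, 30 min at 4° C with [3H]-rac-2-(1,2,3,4-tetrahydro-1-naphthyl)-2-imidazoline. Competitors 10 pM–30 μM, duplicates; non-specific binding with 10 μM unlabelled ligand; filtration and scintillation counting.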", "units": {"Ki": "µM"}, "values": [
      {"smiles": "Cc1c(F)cccc1C1COC(N)=N1", "note": "(racemic) [Example 365, (RS)-4-(3-Fluoro-2-methyl-phenyl)-4,5-dihydro-oxazol-2-ylamine]", "Ki": 0.0029},
      {"smiles": "COc1ccc(C2COC(N)=N2)c(C(F)(F)F)c1", "note": "(racemic) [Example 229, (RS)-4-(4-Methoxy-2-trifluoromethyl-phenyl)-4,5-dihydro-oxazol-2-ylamine]", "Ki": "< 3"},
      {"smiles": "NC1=NC(CCc2ccccc2)CO1", "note": "(racemic) [D, (RS)-4-Phenethyl-4,5-dihydro-oxazol-2-ylamine, reference compound]", "Ki": 0.001},
      {"smiles": "NC1=NC(c2ccc(Br)cc2Cl)CO1", "note": "(racemic) [Example 291, (RS)-4-(4-Bromo-2-chloro-phenyl)-4,5-dihydro-oxazol-2-ylamine]", "Ki": 0.0008},
      {"smiles": "NC1=NC(c2ccc(Br)c(Cl)c2)CO1", "note": "(racemic) [Example 326, (RS)-4-(4-Bromo-3-chloro-phenyl)-4,5-dihydro-oxazol-2-ylamine]", "Ki": 0.001},
      {"smiles": "NC1=NC(c2cccc(Br)c2)CO1", "note": "(racemic) [Example 186, (RS)-4-(3-Bromo-phenyl)-4,5-dihydro-oxazol-2-ylamine]", "Ki": 0.0045},
      {"smiles": "NC1=NC(c2ccc3ccccc3c2)CO1", "note": "(racemic) [Example 33, (RS)-4-Naphthalen-2-yl-4,5-dihydro-oxazol-2-ylamine]", "Ki": 0.0007},
      {"smiles": "NC1=NC(c2cc(Cl)ccc2C(F)(F)F)CO1", "note": "(racemic) [Example 225, (RS)-4-(5-Chloro-2-trifluoromethyl-phenyl)-4,5-dihydro-oxazol-2-ylamine]", "Ki": 0.0062},
      {"smiles": "NC1=NC(c2ccc(Cl)c(Cl)c2)CO1", "note": "(racemic) [Example 14, (RS)-4-(3,4-Dichlorophenyl)-4,5-dihydro-oxazol-2-ylamine]", "Ki": 0.0005}
    ]},
    {"molecular_target": "TAAR1 (Mus musculus, UniProt Q923Y8)", "test": "TAAR1 radioligand binding, membranes of stably transfected HEK293 cells (mouse)", "conditions": "mouse/rat; cell not marked 'rat'; radioligand [3H]-rac-2-(1,2,3,4-tetrahydro-1-naphthyl)-2-imidazoline, 4° C.; read-out: Ki (μM) mouse/rat", "summary_of_the_method": "as §1", "units": {"Ki": "µM"}, "values": [
      {"smiles": "C[C@]1(c2ccc(C(F)(F)F)cc2)COC(N)=N1", "note": "[Example 147, (S)-4-Methyl-4-(4-trifluoromethyl-phenyl)-4,5-dihydro-oxazol-2-ylamine]", "Ki": 0.0041},
      {"smiles": "NC1=N[C@H](c2cc(Cl)c(Cl)cc2C(F)(F)F)CO1", "note": "[Example 243, (−)-(R)-4-(4,5-Dichloro-2-trifluoromethyl-phenyl)-4,5-dihydro-oxazol-2-ylamine]", "Ki": 0.0094},
      {"smiles": "NC1=N[C@@H](c2ccc3ccccc3c2)CO1", "note": "[Example 103, (S)-4-Naphthalen-2-yl-4,5-dihydro-oxazol-2-ylamine]", "Ki": 0.0004},
      {"smiles": "NC1=N[C@@H](c2ccc(Br)cc2C(F)(F)F)CO1", "note": "[Example 338, (+)-(S)-4-(4-Bromo-2-trifluoromethyl-phenyl)-4,5-dihydro-oxazol-2-ylamine]", "Ki": 0.0031},
      {"smiles": "NC1=N[C@@H](c2cc(F)c(F)cc2F)CO1", "note": "[Example 107, (S)-4-(2,4,5-Trifluoro-phenyl)-4,5-dihydro-oxazol-2-ylamine]", "Ki": 0.004},
      {"smiles": "NC1=N[C@@H](COc2ccc(F)cc2F)CO1", "note": "[Example 353, (S)-4-(2,4-Difluoro-phenoxymethyl)-4,5-dihydro-oxazol-2-ylamine]", "Ki": 0.0014},
      {"smiles": "CC1(c2ccc(Cl)cc2Cl)COC(N)=N1", "note": "(racemic) [Example 294, (RS)-4-(2,4-Dichloro-phenyl)-4-methyl-4,5-dihydro-oxazol-2-ylamine]", "Ki": 0.0038},
      {"smiles": "NC1=N[C@@H](c2ccc(Br)cc2)CO1", "note": "[Example 105, (S)-4-(4-Bromo-phenyl)-4,5-dihydro-oxazol-2-ylamine]", "Ki": 0.0007},
      {"smiles": "C[C@]1(CCc2ccc(Cl)cc2)COC(N)=N1", "note": "[Example 244, (S)-4-[2-(4-Chloro-phenyl)-ethyl]-4-methyl-4,5-dihydro-oxazol-2-ylamine]", "Ki": 0.0057},
      {"smiles": "CC(C[C@H]1COC(N)=N1)c1ccc(Cl)c(Cl)c1", "note": "(stereo partly drawn) [Example 221, (S)-4-[2-(3,4-Dichloro-phenyl)-propyl]-4,5-dihydro-oxazol-2-ylamine]", "Ki": 0.0022},
      {"smiles": "NC1=NC(CCC2CCCCC2)CO1", "note": "(stereo in doubt) [Example 332, (S)-4-(2-Cyclohexyl-ethyl)-4,5-dihydro-oxazol-2-ylamine]", "Ki": 0.0061},
      {"smiles": "NC1=N[C@@H](CCc2ccc(F)cc2)CO1", "note": "[Example 85, (S)-4-[2-(4-Fluoro-phenyl)-ethyl]-4,5-dihydro-oxazol-2-ylamine]", "Ki": 0.0011}
    ]}
  ]
}
